These compounds were tested against T1, human Kv1.3 ion channel (Homo sapiens, UniProt P22001) (assay: Inhibition of Kv1.3 currents, planar patch clamp in Jurkat cells). Conditions: Human Jurkat cells (endogenous hKv1.3), averaged dose response data from 3 or more cells.
T1 construct: Human Jurkat cells (which endogenously express hKv1.3) were used in place of rat L929 cells; endogenous in cells; host or cells: Human Jurkat cells
Format: cell-based
Procedure: Potency of compounds to inhibit the human Kv1.3 ion channel were determined as follows:
EC50 values for inhibition of Kv1.3 currents were determined by the method according to Schmitz et al (2005) Molecular Pharmacology 68, 1254-1270 with the following differences: • 1. Human Jurkat cells (which endogenously express hKv1.3) were used in place of rat L929 cells. • 2. All electrophysiology was performed using planar patch clamp (Port-A-Patch, Nanion Technologies Gmbh, Munich) in contrast to conventional patch clamp. • 3. EC50 values shown were determined from averaged dose response data obtained from 3 or more cells.

T1 sequence (P22001 whole entry): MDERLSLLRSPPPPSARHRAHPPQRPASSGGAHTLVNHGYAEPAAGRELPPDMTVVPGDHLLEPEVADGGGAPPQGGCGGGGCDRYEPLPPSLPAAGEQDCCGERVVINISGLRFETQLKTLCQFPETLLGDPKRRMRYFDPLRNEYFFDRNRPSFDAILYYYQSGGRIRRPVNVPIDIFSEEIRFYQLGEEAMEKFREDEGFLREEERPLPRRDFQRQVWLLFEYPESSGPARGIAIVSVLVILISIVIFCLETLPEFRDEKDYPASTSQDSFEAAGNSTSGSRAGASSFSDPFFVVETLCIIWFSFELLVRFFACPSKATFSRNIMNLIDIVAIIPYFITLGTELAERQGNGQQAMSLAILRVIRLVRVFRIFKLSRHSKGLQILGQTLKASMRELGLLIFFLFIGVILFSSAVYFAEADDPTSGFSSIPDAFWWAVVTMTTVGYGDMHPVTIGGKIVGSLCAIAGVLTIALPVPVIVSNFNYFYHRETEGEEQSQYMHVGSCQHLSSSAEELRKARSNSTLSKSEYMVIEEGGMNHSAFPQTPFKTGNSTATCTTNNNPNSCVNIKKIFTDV

Structure (SMILES)	EC50 [nM]
CC(=O)c1c(OCCc2ccccn2)c(OCCCc2ccccc2)c2occc2c1C [Example 40, 5-Acetyl-4-methyl-7-(3-phenylpropoxy)-6-(2-pyridin-2-yl-ethoxy)benzofuran]	66
CC(=O)c1c(OCCn2cncn2)c(OCCCc2ccccc2)c2occc2c1C [Example 37, 1-[4-Methyl-7-(3-phenyl-propoxy)-6-(2-[1,2,4]triazol-1-yl-ethoxy)-benzofuran-5-yl]-ethanone]	74
CC(=O)c1c(OCCOc2cnccn2)c(OCCCc2ccccc2)c2occc2c1C [Example 31b, 1-{4-Methyl-7-(3-phenyl-propoxy)-6-[2-(pyrazin-2-yloxy)-ethoxy]-benzofuran-5-yl}-ethanone]	81
CC(=O)c1c(OCCN2CCOCC2)c(OCCC(C)(C)c2ccccc2)c2occc2c1C (racemic) [Example 46b, rac-1-[4-Methyl-7-(3-methyl-3-phenyl-butoxy)-6-(2-morpholin-4-yl-ethoxy)-benzofuran-5-yl]ethanone]	198
CC(=O)c1c(OCCNC2CCCC2)c(OCCCc2ccc(F)cc2)c2occc2c1C [Example 48, 1-[6-(2-Cyclopentylamino-ethoxy)-4-methyl-7-(3-(4-fluoro-phenyl)-propoxy)-benzofuran-5-yl]-ethanone]	47
CC(=O)c1c(OCCN2CCCCC2)c(OCCCc2ccccc2)c2occc2c1C [Example 33, 1-[4-Methyl-7-(3-phenyl-propoxy)-6-(2-piperidin-1-yl-ethoxy)-benzofuran-5-yl]-ethanone]	343
CC(=O)c1c(OCCN2CCOCC2)c(OCCCc2ccccc2)c2occc2c1C [Example 19, 5-Acetyl-6-(2-morpholinoethoxy)-4-methyl-7-(3-phenylpropoxy)benzofuran]	51
CC(=O)c1c(OCCn2nccn2)c(OCCCc2ccccc2)c2occc2c1C [Example 35, 1-[4-Methyl-7-(3-phenyl-propoxy)-6-(2-[1,2,3]triazol-2-yl-ethoxy)-benzofuran-5-yl]ethanone]	100
CC(=O)c1c(OCCn2ccnc2)c(OCCCc2ccccc2)c2occc2c1C [20 b)]	68
Cc1cc(=O)c2c(C)c3ccoc3c(OCCOc3ccc(F)cc3)c2o1 [Example 43b, 9-[2-(4-Fluoro-phenoxy)-ethoxy]-4,7-dimethyl-furo[3,2-g]chromen-5-one]	229
COc1c(C(C)=O)c(OCCCNc2ccccc2)c(OC)c2occc12 [Example 12, 5-Acetyl-4,7-dimethoxy-6-(3-(phenylamino)propoxy)benzofuran]	690
CC(=O)c1c(C)c2c(c(OCCC(C)c3ccc(F)cc3)c1OCCNC1CCCC1)OCC2 (stereo not drawn) [Example 67, 1-{6-(2-Cyclopentylamino-ethoxy)-7-[3-RS-(4-fluorophenyl)-butoxy]-4-methyl-2,3-dihydro-benzofuran-5-yl}-ethanone]	8
CC(=O)c1c(OCCNC2CCCC2)c(OCCC(C)c2ccc(F)cc2)c2occc2c1C (stereo not drawn) [Example 45b, 5-Acetyl-7-(3-[4-fluorophenyl]butoxy)-4-methyl-6-(2-Cyclopentylamino-ethoxy)benzofuran]	43
CCOC(=O)CC(=O)c1c(OCCN2CCOCC2)cc2occc2c1OCCCCOc1ccccc1 [Example 24, 3-[6-(2-Morpholin-4-ylethoxy)-4-(4-phenoxybutoxy)benzofuran-5-yl]-3-oxo-propionic acid ethyl ester]	590
CC(=O)c1c(OCCn2nnnc2N)c(OCCCc2ccccc2)c2occc2c1C [21 b)]	160
CC(=O)c1c(OCCNC2CCCC2)c(OCCCc2ccccc2)c2occc2c1C [Example 32, 1-[6-(2-Cyclopentylamino-ethoxy)-4-methyl-7-(3-phenyl-propoxy)-benzofuran-5-yl]-ethanone]	49
Cc1cc(=O)c2c(C)c3ccoc3c(OCCCc3ccccc3)c2o1 [18 a)]	114
COc1c(C(C)=O)c(OCCSc2ccccc2)c(OC)c2occc12 [Example 7, 5-Acetyl-4,7-dimethoxy-6-(2-(thiophenoxy)ethoxy)benzofuran]	680
CC(=O)c1c(C)c2c(c(CCCCc3ccccc3)c1OCCN1CCOCC1)OCC2 [Example 68, 1-[4-Methyl-6-(2-morpholin-4-yl-ethoxy)-7-(4-phenyl-butyl)-2,3-dihydro-benzofuran-5-yl]-ethanone]	20
COc1c(C(C)=O)c(OCCCCOc2ccccc2)c(OC)c2occc12 [Example 2]	420

More lines, now with the values ahead:

EC50 [nM]	Structure (SMILES)
1600	CC(=O)c1c(OCCCc2nnn[nH]2)c(OCCCc2ccccc2)c2occc2c1C [Example 54b, 5-Acetyl-6-(3-(1H-tetrazol-5-yl)-propoxy)-4-methyl-7-(3-phenylpropoxy)benzofuran]
160	CC(=O)c1c(OCCCC#N)c(OCCCc2ccccc2)c2occc2c1C [Example 54a, 5-Acetyl-6-(3-cyanopropoxy)-4-methyl-7-(3-phenylpropoxy)benzofuran]
362	CC(=O)c1c(OCCN2CCOCC2)c(OCC(C)(C)Cc2ccccc2)c2occc2c1C [Example 56b, 5-Acetyl-7-(2,2-dimethyl-3-phenylpropoxy)-4-methyl-6-(2-morpholinoethoxy)benzofuran]
100	CC(=O)c1c(OCCN2CCOCC2)c(OC[C@H]2C[C@@H]2c2ccccc2)c2occc2c1C [Example 58c, 1-[4-Methyl-6-(2-morpholin-4-yl-ethoxy)-7-(1S,2S-2-phenyl-cyclopropylmethoxy)-benzofuran-5-yl]-ethanone]

Reference: US8309545B2, “Benzofuran potassium channel blockers and uses thereof” (Bionomics Limited, priority 2006, dated 2012)
